{"source": "paper PMC12377202", "about": "“Design, synthesis, and cytotoxic evaluation of quinazoline-based derivatives as VEGER-2 inhibitors: comparative study against EGFR kinase activity, induction of apoptosis, and molecular docking study” (RSC Advances, 2025)", "key": {"MCF-7": {"test_system": "MCF-7", "assay": "MTT anti-proliferative assay, MCF-7", "type": "cell-based, human", "settings": "Homo sapiens, MCF7"}, "HepG-2": {"test_system": "HepG-2", "assay": "MTT anti-proliferative assay, HepG-2", "type": "cell-based, human", "settings": "Homo sapiens, HepG2"}, "caspase-3": {"test_system": "caspase-3", "assay": "Caspase-3 expression level in HepG-2 cells", "type": "cell-based, human", "settings": "for Caspase-3 ± SE: HepG-2, at IC50 concentrations, control 0.460", "description": "(§1) All synthesized compounds were tested at their cytotoxic concentrations in HepG-2 cells for analysis of gene expression levels of apoptotic markers caspase-3, caspase-9, TNF-α, and IL-6 proteins, and only two active compounds were tested for BAX and Bcl-2 proteins.\n(§2) through Flow cytometric analysis.\n(§3) Pellets were collected again and incubated with\n(§4) Total RNA from vehicle-treated\n(§5) (Thermo Scientific, USA).\n(§6) All experiments were performed in […]"}, "TNF-alpha": {"test_system": "TNF-alpha", "assay": "TNF-alpha level in HepG-2 cells", "type": "cell-based, human", "settings": "control 43.48", "description": "as §1, §2, §3, §4, §5, §6"}, "EGFR": {"biological_target": "EGFR (Homo sapiens, UniProt P00533)", "sequence (P00533 25-1210)": "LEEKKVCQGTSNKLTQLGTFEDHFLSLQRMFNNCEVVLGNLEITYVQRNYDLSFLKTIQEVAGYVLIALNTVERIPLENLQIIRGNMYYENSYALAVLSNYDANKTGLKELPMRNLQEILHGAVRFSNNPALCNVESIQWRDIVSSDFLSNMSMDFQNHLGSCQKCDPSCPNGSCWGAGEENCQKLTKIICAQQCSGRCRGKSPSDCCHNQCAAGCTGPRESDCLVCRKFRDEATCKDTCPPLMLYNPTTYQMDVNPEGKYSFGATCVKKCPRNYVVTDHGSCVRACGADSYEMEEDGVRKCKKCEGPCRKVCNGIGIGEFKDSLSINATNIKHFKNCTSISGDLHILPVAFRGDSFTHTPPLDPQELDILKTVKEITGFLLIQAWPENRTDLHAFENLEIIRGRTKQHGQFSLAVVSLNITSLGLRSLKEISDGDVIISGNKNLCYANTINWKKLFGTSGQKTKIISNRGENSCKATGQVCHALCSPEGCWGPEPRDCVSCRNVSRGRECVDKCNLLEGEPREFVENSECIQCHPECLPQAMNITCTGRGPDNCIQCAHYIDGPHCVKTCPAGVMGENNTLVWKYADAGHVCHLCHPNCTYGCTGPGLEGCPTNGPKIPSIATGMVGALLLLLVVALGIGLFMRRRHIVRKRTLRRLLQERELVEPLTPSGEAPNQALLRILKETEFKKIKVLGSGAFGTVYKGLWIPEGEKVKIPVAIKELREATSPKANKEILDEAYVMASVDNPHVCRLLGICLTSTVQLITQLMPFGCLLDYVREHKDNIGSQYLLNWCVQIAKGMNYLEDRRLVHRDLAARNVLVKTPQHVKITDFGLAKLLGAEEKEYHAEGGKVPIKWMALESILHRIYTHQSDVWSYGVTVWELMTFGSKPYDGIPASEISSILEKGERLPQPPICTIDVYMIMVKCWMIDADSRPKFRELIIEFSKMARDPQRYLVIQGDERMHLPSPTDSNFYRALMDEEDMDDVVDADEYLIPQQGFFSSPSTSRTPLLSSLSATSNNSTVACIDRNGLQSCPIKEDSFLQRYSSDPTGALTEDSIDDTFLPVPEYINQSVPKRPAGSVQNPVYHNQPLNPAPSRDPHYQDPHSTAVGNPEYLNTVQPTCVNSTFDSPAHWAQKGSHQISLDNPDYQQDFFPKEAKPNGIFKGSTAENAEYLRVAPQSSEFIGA", "assay": "EGFR kinase inhibition assay (ELISA kit)"}, "K-562": {"test_system": "K-562", "assay": "MTT anti-proliferative assay, K-562", "type": "cell-based, human", "settings": "Homo sapiens, K562"}}}
{"compound": "O=C(Cn1cnc2cc([N+](=O)[O-])ccc2c1=O)Nc1ccccc1Cl", "note": "[9b, N-(2-Chlorophenyl)-2-(7-nitro-4-oxoquinazolin-3(4H)-yl)acetamide]", "values": [{"measurement": "viability at 0.195 µmol", "setting": "MCF-7; MCF-7, 0.195 umol", "value": 52.1, "unit": "%"}, {"measurement": "cytotoxicity at 0.195 µmol", "setting": "MCF-7; MCF-7, 0.195 umol, read-out: Toxicity %", "value": 47.9, "unit": "%"}, {"measurement": "viability at 0.391 µmol", "setting": "MCF-7; MCF-7, 0.391 umol", "value": 22.7, "unit": "%"}, {"measurement": "cytotoxicity at 0.391 µmol", "setting": "MCF-7; MCF-7, 0.391 umol, read-out: Toxicity %", "value": 77.3, "unit": "%"}, {"measurement": "viability at 0.781 µmol", "setting": "MCF-7; MCF-7, 0.781 umol", "value": 15.6, "unit": "%"}, {"measurement": "cytotoxicity at 0.781 µmol", "setting": "MCF-7; MCF-7, 0.781 umol, read-out: Toxicity %", "value": 84.4, "unit": "%"}, {"measurement": "viability at 1.563 µmol", "setting": "MCF-7; MCF-7, 1.563 umol", "value": 11.9, "unit": "%"}, {"measurement": "cytotoxicity at 1.563 µmol", "setting": "MCF-7; MCF-7, 1.563 umol, read-out: Toxicity %", "value": 88.1, "unit": "%"}, {"measurement": "viability at 3.125 µmol", "setting": "MCF-7; MCF-7, 3.125 umol", "value": 9.45, "unit": "%"}, {"measurement": "cytotoxicity at 3.125 µmol", "setting": "MCF-7; MCF-7, 3.125 umol, read-out: Toxicity %", "value": 90.5, "unit": "%"}, {"measurement": "viability at 6.25 µmol", "setting": "MCF-7; MCF-7, 6.25 umol", "value": 8, "unit": "%"}, {"measurement": "cytotoxicity at 6.25 µmol", "setting": "MCF-7; MCF-7, 6.25 umol, read-out: Toxicity %", "value": 92, "unit": "%"}, {"measurement": "viability at 12.5 µmol", "setting": "MCF-7; MCF-7, 12.5 umol", "value": 7.26, "unit": "%"}, {"measurement": "cytotoxicity at 12.5 µmol", "setting": "MCF-7; MCF-7, 12.5 umol, read-out: Toxicity %", "value": 92.7, "unit": "%"}, {"measurement": "viability at 25 µmol", "setting": "MCF-7; MCF-7, 25 umol", "value": 6.77, "unit": "%"}, {"measurement": "cytotoxicity at 25 µmol", "setting": "MCF-7; MCF-7, 25 umol, read-out: Toxicity %", "value": 93.2, "unit": "%"}, {"measurement": "IC50", "setting": "MCF-7; MTT, MCF-7, read-out: Cytotoxicity against cancer cells IC50 MCF-7", "value": "0.209 ± 0.0037", "unit": "µM"}, {"measurement": "viability at 0.195 µg/mL", "setting": "HepG-2; HepG-2, 0.195 ug/ml", "value": 49.7, "unit": "%"}, {"measurement": "cytotoxicity at 0.195 µg/mL", "setting": "HepG-2; HepG-2, 0.195 ug/ml, read-out: Toxicity %", "value": 50.3, "unit": "%"}, {"measurement": "viability at 0.391 µg/mL", "setting": "HepG-2; HepG-2, 0.391 ug/ml", "value": 37.3, "unit": "%"}, {"measurement": "cytotoxicity at 0.391 µg/mL", "setting": "HepG-2; HepG-2, 0.391 ug/ml, read-out: Toxicity %", "value": 62.7, "unit": "%"}, {"measurement": "viability at 0.781 µg/mL", "setting": "HepG-2; HepG-2, 0.781 ug/ml", "value": 27.7, "unit": "%"}, {"measurement": "cytotoxicity at 0.781 µg/mL", "setting": "HepG-2; HepG-2, 0.781 ug/ml, read-out: Toxicity %", "value": 72.3, "unit": "%"}, {"measurement": "viability at 1.563 µg/mL", "setting": "HepG-2; HepG-2, 1.563 ug/ml", "value": 13, "unit": "%"}, {"measurement": "cytotoxicity at 1.563 µg/mL", "setting": "HepG-2; HepG-2, 1.563 ug/ml, read-out: Toxicity %", "value": 87, "unit": "%"}, {"measurement": "viability at 3.125 µg/mL", "setting": "HepG-2; HepG-2, 3.125 ug/ml", "value": 9.93, "unit": "%"}, {"measurement": "cytotoxicity at 3.125 µg/mL", "setting": "HepG-2; HepG-2, 3.125 ug/ml, read-out: Toxicity %", "value": 90.1, "unit": "%"}, {"measurement": "viability at 6.25 µg/mL", "setting": "HepG-2; HepG-2, 6.25 ug/ml", "value": 7.8, "unit": "%"}, {"measurement": "cytotoxicity at 6.25 µg/mL", "setting": "HepG-2; HepG-2, 6.25 ug/ml, read-out: Toxicity %", "value": 92.2, "unit": "%"}, {"measurement": "viability at 12.5 µg/mL", "setting": "HepG-2; HepG-2, 12.5 ug/ml", "value": 6.7, "unit": "%"}, {"measurement": "cytotoxicity at 12.5 µg/mL", "setting": "HepG-2; HepG-2, 12.5 ug/ml, read-out: Toxicity %", "value": 93.3, "unit": "%"}, {"measurement": "viability at 25 µg/mL", "setting": "HepG-2; HepG-2, 25 ug/ml", "value": 5.93, "unit": "%"}, {"measurement": "cytotoxicity at 25 µg/mL", "setting": "HepG-2; HepG-2, 25 ug/ml, read-out: Toxicity %", "value": 94.1, "unit": "%"}, {"measurement": "IC50", "setting": "HepG-2; MTT, HepG-2, read-out: Cytotoxicity against cancer cells IC50 HepG-2", "value": "0.194 ± 0.0066", "unit": "µM"}, {"measurement": "Caspase-3 ± SE", "setting": "caspase-3", "value": "1.08 ± 0.028", "unit": "ng/mL"}, {"measurement": "Caspase-3 ± SE", "setting": "caspase-3; listed as N5", "value": 1.08, "unit": "ng/mL"}, {"measurement": "caspase-3 expression level, fold increase", "setting": "caspase-3; HepG-2, vs control cells", "value": 2.35, "unit": "fold"}, {"measurement": "TNF-alpha ±SE", "setting": "TNF-alpha; HepG-2, at IC50 concentrations", "value": "27.34 ± 1.95", "unit": "ng/L"}, {"measurement": "TNF-alpha ±SE", "setting": "TNF-alpha; raw data, HepG2", "value": 14.37, "unit": "ng/L"}, {"measurement": "Activity %", "setting": "EGFR; HepG2", "value": 52.262, "unit": "%"}, {"measurement": "Inhibition %", "setting": "EGFR; HepG2", "value": 47.738, "unit": "%"}, {"measurement": "Activity %", "setting": "EGFR; K-562", "value": 47.456, "unit": "%"}, {"measurement": "Inhibition %", "setting": "EGFR; K-562", "value": 52.544, "unit": "%"}, {"measurement": "Activity %", "setting": "EGFR; MCF7", "value": 25.292, "unit": "%"}, {"measurement": "Inhibition %", "setting": "EGFR; MCF7", "value": 74.708, "unit": "%"}, {"measurement": "viability at 0.195 µmol", "setting": "K-562; K-562, 0.195 umol", "value": 47.5, "unit": "%"}, {"measurement": "cytotoxicity at 0.195 µmol", "setting": "K-562; K-562, 0.195 umol, read-out: Toxicity %", "value": 52.5, "unit": "%"}, {"measurement": "viability at 0.391 µmol", "setting": "K-562; K-562, 0.391 umol", "value": 37.8, "unit": "%"}, {"measurement": "cytotoxicity at 0.391 µmol", "setting": "K-562; K-562, 0.391 umol, read-out: Toxicity %", "value": 62.2, "unit": "%"}]}
